Patent US6376497B1, “Antifungal azole derivatives having a fluorinated vinyl group and process for preparing same” (Korea Research Institute of Chemical Technology, priority 1999, dated 2002)
Converted amounts (≈) assume the structure as drawn.

Columns and labels:
Test in all cases: In vitro antifungal activity, microbroth dilution MIC
Assay type in all cases: cell-based
[1] = test system: Aspergillus furnigatus B. 19119; conditions: 4 to 48 hours; for Minimal inhibitory concentration (MIC): A furnigatus B. 19119, RPMI-1640, 35° C.; for Minimal inhibitory concentration(MIC), A furnigatus B. 19119: RPMI-1640, 35° C., no growth observed
Summary of the method: (§1)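 Broth microdilution adapted from NCCLS M27, in RPMI-1640 with 0.165 M MOPS, pH 7.0. Yeast or mould inoculum at 2×10^3 CFU/ml was mixed 1:1 with DMSO-derived compound solutions (200 to 0.10 μg/ml before mixing) and incubated at 35 °C for 4 to 48 h. MIC was the concentration showing no growth.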

[2] = test system: Aspergillus niger A. 16404; conditions: 4 to 48 hours; for Minimal inhibitory concentration (MIC): A. niger A. 16404, RPMI-1640, 35° C.; for Minimal inhibitory concentration(MIC), A. niger A. 16404: RPMI-1640, 35° C., no growth observed
Summary of the method: as §1

[3] = test system: Candida albicans A. 10231; conditions: 4 to 48 hours; for Minimal inhibitory concentration (MIC): C. albicans A. 10231, RPMI-1640, 35° C.; for Minimal inhibitory concentration(MIC), C. albicans A. 10231: RPMI-1640, 35° C., no growth observed
Summary of the method: as §1

[4] = test system: Candida albicans C1-2; conditions: 4 to 48 hours; for Minimal inhibitory concentration (MIC): C. albicans C1-2, RPMI-1640, 35° C.; for Minimal inhibitory concentration(MIC), C. albicans C1-2: RPMI-1640, 35° C., no growth observed
Summary of the method: as §1

[5] = test system: Candida albicans IFO. 1385; conditions: 4 to 48 hours; for Minimal inhibitory concentration (MIC): C. albicans IFO. 1385, RPMI-1640, 35° C.; for Minimal inhibitory concentration(MIC), C. albicans IFO. 1385: RPMI-1640, 35° C., no growth observed
Summary of the method: as §1

[6] = test system: Candida krusei K. 11655; conditions: 4 to 48 hours; for Minimal inhibitory concentration (MIC): C. krusei K. 11655, RPMI-1640, 35° C.; for Minimal inhibitory concentration(MIC), C. krusei K. 11655: RPMI-1640, 35° C., no growth observed
Summary of the method: as §1

[7] = test system: Candida parapsitosis A. 7330; conditions: 4 to 48 hours; for Minimal inhibitory concentration (MIC): C. parapsitosis A. 7330, RPMI-1640, 35° C.; for Minimal inhibitory concentration(MIC), C. parapsitosis A. 7330: RPMI-1640, 35° C., no growth observed
Summary of the method: as §1

[8] = test system: Candida pseudotropicalis K. 11658; conditions: 4 to 48 hours; for Minimal inhibitory concentration (MIC): C. pseudotropicalis K. 11658, RPMI-1640, 35° C.; for Minimal inhibitory concentration(MIC), C. pseudotropicalis K. 11658: RPMI-1640, 35° C., no growth observed
Summary of the method: as §1

[9] = test system: Candida tropicalis A. 13803; conditions: 4 to 48 hours; for Minimal inhibitory concentration (MIC): C. tropicalis A. 13803, RPMI-1640, 35° C.; for Minimal inhibitory concentration(MIC), C. tropicalis A. 13803: RPMI-1640, 35° C., no growth observed
Summary of the method: as §1

[10] = test system: Cryptococcus neoformans A. 34144; conditions: 4 to 48 hours; for Minimal inhibitory concentration (MIC): Cry. neoformans A. 34144, RPMI-1640, 35° C.; for Minimal inhibitory concentration(MIC), Cry. neoformans A. 34144: RPMI-1640, 35° C., no growth observed
Summary of the method: as §1

[11] = test system: Cryptococcus neoformans B. 42419; conditions: 4 to 48 hours; for Minimal inhibitory concentration (MIC): Cry. neoformans B. 42419, RPMI-1640, 35° C.; for Minimal inhibitory concentration(MIC), Cry. neoformans B. 42419: RPMI-1640, 35° C., no growth observed
Summary of the method: as §1

[12] = test system: Cryptococcus neoformans IFM. 40092; conditions: 4 to 48 hours; for Minimal inhibitory concentration (MIC): Cry. neoformans IFM. 40092, RPMI-1640, 35° C.; for Minimal inhibitory concentration(MIC), Cry. neoformans IFM. 40092: RPMI-1640, 35° C., no growth observed
Summary of the method: as §1

[13] = test system: Torulopsis glabrata B. 16205; conditions: 4 to 48 hours; for Minimal inhibitory concentration (MIC): T. glabrata B. 16205, RPMI-1640, 35° C.; for Minimal inhibitory concentration(MIC), T. glabrata B. 16205: RPMI-1640, 35° C., no growth observed
Summary of the method: as §1

[14] = test system: Trichophyton mentagrophytes A. 9129; conditions: 4 to 48 hours; for Minimal inhibitory concentration (MIC): T. mentagrophytes A. 9129, RPMI-1640, 35° C.; for Minimal inhibitory concentration(MIC), T. mentagrophytes A. 9129: RPMI-1640, 35° C., no growth observed
Summary of the method: as §1

[15] = test system: Trichophyton mentagrophytes B. 32663; conditions: 4 to 48 hours; for Minimal inhibitory concentration (MIC): T. mentagrophytes B. 32663, RPMI-1640, 35° C.; for Minimal inhibitory concentration(MIC), T. mentagrophytes B. 32663: RPMI-1640, 35° C., no growth observed
Summary of the method: as §1

Structure (SMILES)	Minimal inhibitory concentration (MIC) [1] [µg/mL]	Minimal inhibitory concentration (MIC) [2] [µg/mL]	Minimal inhibitory concentration (MIC) [3] [µg/mL]	Minimal inhibitory concentration (MIC) [4] [µg/mL]	Minimal inhibitory concentration (MIC) [5] [µg/mL]	Minimal inhibitory concentration (MIC) [6] [µg/mL]	Minimal inhibitory concentration (MIC) [7] [µg/mL]	Minimal inhibitory concentration (MIC) [8] [µg/mL]	Minimal inhibitory concentration (MIC) [9] [µg/mL]	Minimal inhibitory concentration (MIC) [10] [µg/mL]	Minimal inhibitory concentration (MIC) [11] [µg/mL]	Minimal inhibitory concentration (MIC) [12]	Minimal inhibitory concentration (MIC) [13] [µg/mL]	Minimal inhibitory concentration (MIC) [14] [µg/mL]	Minimal inhibitory concentration (MIC) [15] [µg/mL]	other results
Cc1ccc(C=C(F)OCC2COC(Cn3ccnc3)(c3ccc(F)cc3F)O2)cc1 (mixture of isomers) [Ex. 38]	12.5	50.0	12.5	12.5	0.39	25.0	12.5	12.5	25.0	1.56	1.56	0.20 µg/mL	6.25	6.25	1.56	
COc1ccc(C(=C(F)OCC2COC(Cn3ccnc3)(c3ccc(Cl)cc3Cl)O2)C(F)(F)F)cc1 (stereo not drawn) [Ex. 27]	100 (≈ 183 µM)	100 (≈ 183 µM)	25.0 (≈ 45.7 µM)	25.0 (≈ 45.7 µM)	1.56 (≈ 2.85 µM)	>100	>100	>100	>100	1.56 (≈ 2.85 µM)	1.56 (≈ 2.85 µM)	0.78 µg/mL (≈ 1.43 µM)	25.0 (≈ 45.7 µM)	25.0 (≈ 45.7 µM)	6.25 (≈ 11.4 µM)	
FC(OCC1COC(Cn2ccnc2)(c2ccc(Cl)cc2Cl)O1)=C(c1ccc2c(c1)OCO2)C(F)(F)F (stereo not drawn) [Ex. 28]	100 (≈ 178 µM)	100 (≈ 178 µM)	25.0 (≈ 44.5 µM)	25.0 (≈ 44.5 µM)	1.56 (≈ 2.78 µM)	>100	100 (≈ 178 µM)	100 (≈ 178 µM)	100 (≈ 178 µM)	1.56 (≈ 2.78 µM)	1.56 (≈ 2.78 µM)	0.78 µg/mL (≈ 1.39 µM)	25.0 (≈ 44.5 µM)	25.0 (≈ 44.5 µM)	6.25 (≈ 11.1 µM)	
Cc1cccc(C=C(F)OCC2COC(Cn3ccnc3)(c3ccc(F)cc3F)O2)c1 (mixture of isomers) [Ex. 37]	>100	>100	25.0	25.0	3.13	>100	>100	>100	>100	3.13	6.25	0.78 µg/mL	6.25	50.0	25.0	
CC(C)(C)c1ccc(C(=C(F)N2CCN(c3ccc(OCC4COC(Cn5ccnc5)(c5ccc(Cl)cc5Cl)O4)cc3)CC2)C(F)(F)F)cc1 (mixture of isomers) [Ex. 128]																Minimal inhibitory concentration(MIC), A furnigatus B. 19119 [1]: >100 µg/mL; Minimal inhibitory concentration(MIC), A. niger A. 16404 [2]: >100 µg/mL; Minimal inhibitory concentration(MIC), C. albicans A. 10231 [3]: >100 µg/mL; Minimal inhibitory concentration(MIC), C. albicans C1-2 [4]: >100 µg/mL; Minimal inhibitory concentration(MIC), C. albicans IFO. 1385 [5]: 1.56 µg/mL; Minimal inhibitory concentration(MIC), C. krusei K. 11655 [6]: 3.13 µg/mL; Minimal inhibitory concentration(MIC), C. parapsitosis A. 7330 [7]: 3.13 µg/mL; Minimal inhibitory concentration(MIC), C. pseudotropicalis K. 11658 [8]: 1.56 µg/mL; Minimal inhibitory concentration(MIC), C. tropicalis A. 13803 [9]: >100 µg/mL; Minimal inhibitory concentration(MIC), Cry. neoformans A. 34144 [10]: 0.78 µg/mL; Minimal inhibitory concentration(MIC), Cry. neoformans B. 42419 [11]: 0.78 µg/mL; Minimal inhibitory concentration(MIC), Cry. neoformans IFM. 40092 [12]: ≦0.10 μg/ml; Minimal inhibitory concentration(MIC), T. glabrata B. 16205 [13]: >100 µg/mL; Minimal inhibitory concentration(MIC), T. mentagrophytes A. 9129 [14]: 12.5 µg/mL; Minimal inhibitory concentration(MIC), T. mentagrophytes B. 32663 [15]: 6.25 µg/mL
COc1ccc(C(=C(F)Oc2ccc(OCC3COC(Cn4ccnc4)(c4ccc(Cl)cc4Cl)O3)cc2)C(F)(F)F)cc1 (mixture of isomers) [Ex. 98]																Minimal inhibitory concentration(MIC), A furnigatus B. 19119 [1]: >100 µg/mL; Minimal inhibitory concentration(MIC), A. niger A. 16404 [2]: >100 µg/mL; Minimal inhibitory concentration(MIC), C. albicans A. 10231 [3]: 50.0 µg/mL; Minimal inhibitory concentration(MIC), C. albicans C1-2 [4]: 100 µg/mL; Minimal inhibitory concentration(MIC), C. albicans IFO. 1385 [5]: 3.13 µg/mL; Minimal inhibitory concentration(MIC), C. krusei K. 11655 [6]: >100 µg/mL; Minimal inhibitory concentration(MIC), C. parapsitosis A. 7330 [7]: >100 µg/mL; Minimal inhibitory concentration(MIC), C. pseudotropicalis K. 11658 [8]: >100 µg/mL; Minimal inhibitory concentration(MIC), C. tropicalis A. 13803 [9]: >100 µg/mL; Minimal inhibitory concentration(MIC), Cry. neoformans A. 34144 [10]: 3.13 µg/mL; Minimal inhibitory concentration(MIC), Cry. neoformans B. 42419 [11]: 6.25 µg/mL; Minimal inhibitory concentration(MIC), Cry. neoformans IFM. 40092 [12]: 0.78 µg/mL; Minimal inhibitory concentration(MIC), T. glabrata B. 16205 [13]: 50 µg/mL; Minimal inhibitory concentration(MIC), T. mentagrophytes A. 9129 [14]: 25.0 µg/mL; Minimal inhibitory concentration(MIC), T. mentagrophytes B. 32663 [15]: 6.25 µg/mL
Cc1ccc(C(=C(F)OCC2COC(Cn3ccnc3)(c3ccc(F)cc3F)O2)C(F)(F)F)cc1 (mixture of isomers) [Ex. 54]	3.13	25.0	12.5	25.0	0.78	>100	>100	100	100	1.56	0.78	≦0.10 μg/ml	6.25	3.13	1.56	
